Some results are limits rather than exact numbers.

The term IC50 denotes the concentration at which inhibition is half-maximal.

The target of the experiment is T1, CHK1 (Homo sapiens, UniProt O14757).
T1 construct: His; purchased Invitrogen
T1 sequence (O14757 1-476): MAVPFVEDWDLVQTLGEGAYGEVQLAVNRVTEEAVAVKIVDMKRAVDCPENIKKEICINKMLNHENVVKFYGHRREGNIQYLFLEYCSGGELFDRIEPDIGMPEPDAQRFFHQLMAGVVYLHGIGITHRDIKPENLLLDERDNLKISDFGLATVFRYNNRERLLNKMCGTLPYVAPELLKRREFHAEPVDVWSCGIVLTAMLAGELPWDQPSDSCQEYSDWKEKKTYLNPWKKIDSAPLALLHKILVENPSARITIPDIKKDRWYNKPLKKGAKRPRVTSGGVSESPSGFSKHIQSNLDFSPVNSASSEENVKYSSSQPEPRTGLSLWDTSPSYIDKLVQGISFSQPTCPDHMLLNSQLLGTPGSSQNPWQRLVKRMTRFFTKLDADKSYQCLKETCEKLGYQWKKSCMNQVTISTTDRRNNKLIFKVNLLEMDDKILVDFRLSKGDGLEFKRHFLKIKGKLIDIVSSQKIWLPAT
The experiment in a line: CHK1 Enzyme Assay (phosphorylation of Chktide peptide, 33P-ATP filter assay). Type of experiment: biochemical. As to conditions: 12.5 nM His-CHK1, 0.01 mM ATP, 40 minutes at 30° C.; read-out: CHK1 Enzyme Activity (IC50 range). Here is the method: Assays for the CHK1 kinase activity were carried out by monitoring the phosphorylation of a synthetic peptide Chktide with the amino acid sequence, […]. The assay mixture containing the inhibitor and CHK1 enzyme was mixed together in a microtiter plate in a final volume of 50 μl and incubated for 40 minutes at 30° C.
The assay mixture contained 0.01 mM unlabeled ATP, 0.5 μCi ^33P-γ-ATP, 14.8 μM Chktide, 0.1 mg/mL BSA, 50 mM Hepes-NaOH pH 7.5 and 12.5 nM His-CHK1 (Invitrogen) enzyme. The reaction was stopped by adding 50 μL of 50 mM phosphoric acid. 90 μL of the mixture was transferred to a pre-wetted 96-well multi-screen MAPHNOB filtration plate (Millipore) and filtered on a vacuum manifold. The filter plate was washed with 3 successive additions of 200 μl 50 mM phosphoric acid and then with 100 μL methanol. The filtration plate was dried for 10 min at 65° C., scintillant added and phosphorylated peptide quantified in a scintillation counter (Trilux, PerkinElmer).
Turning to `CN1CCN(Cc2cccc3[nH]c(-c4cc(NC(=O)c5cnn(Cc6ccccc6)c5)c[nH]c4=O)cc23)CC1` [Example 107, 1-Benzyl-1H-pyrazole-4-carboxylic acid {5-[4-(4-methyl-piperazin-1-ylmethyl)-1H-indol-2-yl]-6-oxo-1,6-dihydro-pyridin-3-yl}-amide], the IC50 is below 100 nM.
Take `N#Cc1cccc(Cn2cc(NC(=O)c3c[nH]c(=O)c(-c4cc5ccccc5[nH]4)c3)cn2)c1` [Example 6, 5-(1H-Indol-2-yl)-6-oxo-1,6-dihydro-pyridine-3-carboxylic acid [1-(3-cyano-benzyl)-1H-pyrazol-4-yl]-amide]: the IC50 lay in the range of 100 to 500 nM.
In the case of `Cc1ccccc1Cn1cc(NC(=O)c2c[nH]c(=O)c(-c3cc4ccccc4[nH]3)c2)cn1` [Example 3, 5-(1H-Indol-2-yl)-6-oxo-1,6-dihydro-pyridine-3-carboxylic acid [1-(2-methyl-benzyl)-1H-pyrazol-4-yl]-amide], the IC50 is 500 to 1500 nM.
Turning to `Cc1[nH]c(=O)c(-c2cc3ccccc3[nH]2)cc1C(=O)Nc1cnn(Cc2cccc(F)c2)c1` [Example 18, 5-(1H-Indol-2-yl)-2-methyl-6-oxo-1,6-dihydro-pyridine-3-carboxylic acid [1-(3-fluoro-benzyl)-1H-pyrazol-4-yl]-amide], the IC50 is 500 to 1500 nM.
`Cc1cccc(Cn2cc(C(=O)Nc3c[nH]c(=O)c(-c4cc5ccccc5[nH]4)c3)cn2)c1` [Example 26, 1-(3-Methyl-benzyl)-1H-pyrazole-4-carboxylic acid [5-(1H-indol-2-yl)-6-oxo-1,6-dihydro-pyridin-3-yl]-amide]: the IC50 was below 100 nM.
Turning to `CCc1cccc(Cn2cc(C(=O)Nc3c[nH]c(=O)c(-c4cc5cc(OCCN(C)C)ccc5[nH]4)c3)cn2)c1` [Example 128, 1-(3-Ethyl-benzyl)-1H-pyrazole-4-carboxylic acid {5-[5-(2-dimethylamino-ethoxy)-1H-indol-2-yl]-6-oxo-1,6-dihydro-pyridin-3-yl}-amide], the IC50 was below 100 nM.
As to `Cc1ccc(Cn2cc(C(=O)Nc3c[nH]c(=O)c(-c4cc5cc(OCCCN6CCCCC6)ccc5[nH]4)c3)cn2)cc1` [Example 119, 1-(4-Methyl-benzyl)-1H-pyrazole-4-carboxylic acid {6-oxo-5-[5-(3-piperidin-1-yl-propoxy)-1H-indol-2-yl]-1,6-dihydro-pyridin-3-yl}-amide], the half-maximal inhibitory concentration (IC50) is below 100 nM.
On to `Cc1[nH]c(=O)c(-c2cc3ccccc3[nH]2)cc1NC(=O)c1cnn(Cc2ccc(F)c(F)c2)c1` [Example 33, 1-(3,4-Difluoro-benzyl)-1H-pyrazole-4-carboxylic acid [5-(1H-indol-2-yl)-2-methyl-6-oxo-1,6-dihydro-pyridin-3-yl]-amide], for which the IC50 was in the range of 100 to 500 nM.
Take `Cc1ccc(Cn2cc(C(=O)Nc3c[nH]c(=O)c(-c4cc5cc(OCC(C)(C)CN(C)C)ccc5[nH]4)c3)cn2)cc1` [Example 137, 1-(4-Methyl-benzyl)-1H-pyrazole-4-carboxylic acid {5-[5-(3-dimethylamino-2,2-dimethyl-propoxy)-1H-indol-2-yl]-6-oxo-1,6-dihydro-pyridin-3-yl}-amide]: the IC50 is below 100 nM.
For the compound `O=C(Nc1cnn(Cc2ccc(F)c(F)c2)c1)c1c[nH]c(=O)c(-c2cc3cc(CNCCO)ccc3[nH]2)c1` [Example 103, 5-{5-[(2-Hydroxyethylamino)-methyl]-1H-indol-2yl}-6-oxo-1,6-dihydropyridine-3-carboxylic acid[1-(3,4-difluorobenzyl)-1H-pyrazol-4-yl]-amide], the half-inhibitory concentration (IC50) was below 100 nM.
On to `O=C(Nc1c[nH]c(=O)c(-c2cc3cc(CN4CCCC(F)C4)ccc3[nH]2)c1)c1cnn(Cc2ccccc2)c1` (stereo not drawn) [Example 57, 1-Benzyl-1H-pyrazole-4-carboxylic acid {5-[5-(3-fluoro-piperidin-1-ylmethyl)-1H-indol-2-yl]-6-oxo-1,6-dihydro-pyridin-3-yl}-amide], for which the IC50 was below 100 nM.
In the case of `CCN(CC)CCOc1ccc2[nH]c(-c3cc(NC(=O)c4cnn(Cc5ccc(C(C)C)cc5)c4)c[nH]c3=O)cc2c1` [Example 155, 1-(4-Isopropylbenzyl)-1H-pyrazole-4-carboxylic acid {5-[5-(2-diethylaminoethoxy)-1H-indol-2-yl)-6-oxo-1,6-dihydropyridin-3-yl}-amide], the IC50 is below 100 nM.
For the compound `CN1CCN(c2ccc3[nH]c(-c4cc(NC(=O)c5cnn(Cc6ccccc6)c5)c[nH]c4=O)cc3c2)CC1` [Example 113, 1-Benzyl-1H-pyrazole-4-carboxylic acid {5-[5-(4-methyl-piperazin-1-yl)-1H-indol-2-yl]-6-oxo-1,6-dihydro-pyridin-3-yl}-amide], the IC50 was below 100 nM.
The value for `N#Cc1ccc(Cn2cc(NC(=O)c3c[nH]c(=O)c(-c4cc5ccccc5[nH]4)c3)cn2)cc1` [Example 7, 5-(1H-Indol-2-yl)-6-oxo-1,6-dihydro-pyridine-3-carboxylic acid [1-(4-cyano-benzyl)-1H-pyrazol-4-yl]-amide] was 500 to 1500 nM.
Take `Cc1ccc(Cn2cc(C(=O)Nc3c[nH]c(=O)c(-c4cc5cc(CN6CCN(C)CC6)ccc5[nH]4)c3)cn2)cc1` [Example 59, 1-(4-Methyl-benzyl)-1H-pyrazole-4-carboxylic acid {5-[5-(4-methyl-piperazin-1-ylmethyl)-1H-indol-2-yl]-6-oxo-1,6-dihydro-pyridin-3-yl}-amide]: the IC50 is below 100 nM.
Regarding `CCc1cccc(Cn2cc(C(=O)Nc3c[nH]c(=O)c(-c4cc5cc(OCCCN6CCN(C)CC6)ccc5[nH]4)c3)cn2)c1` [Example 127, 1-(3-Ethyl-benzyl)-1H-pyrazole-4-carboxylic acid (5-{5-[3-(4-methyl-piperazin-1-yl)-propoxy]-1H-indol-2-yl}-6-oxo-1,6-dihydro-pyridin-3-yl)-amide], the IC50 is below 100 nM.
Turning to `CCN(CCO)Cc1ccc2[nH]c(-c3cc(NC(=O)c4cnn(Cc5ccc(Cl)cc5)c4)c[nH]c3=O)cc2c1` [Example 45, 1-(4-Chloro-benzyl)-1H-pyrazole-4-carboxylic acid [5-(5-{[ethyl-(2-hydroxy-ethyl)-amino]-methyl}-1H-indol-2-yl)-6-oxo-1,6-dihydro-pyridin-3-yl]-amide], the half-inhibitory concentration (IC50) was below 100 nM.
The value for `O=C(Nc1c[nH]c(=O)c(-c2cc3cc(CN4CCC(F)CC4)ccc3[nH]2)c1)c1cnn(CCc2ccc(F)cc2)c1` [Example 96, 1-[2-(4-Fluoro-phenyl)-ethyl]-1H-pyrazole-4-carboxylic acid {5-[5-(4-fluoro-piperidin-1-ylmethyl)-1H-indol-2-yl]-6-oxo-1,6-dihydro-pyridin-3-yl}-amide] was below 100 nM; that for `O=C(Nc1cnn(Cc2cccnc2)c1)c1c[nH]c(=O)c(-c2cc3ccccc3[nH]2)c1` [Example 35, 5-(1H-Indol-2-yl)-6-oxo-1,6-dihydro-pyridine-3-carboxylic acid (1-pyridin-3-ylmethyl-1H-pyrazol-4-yl)-amide] was below 100 nM; that for `O=C(Nc1c[nH]c(=O)c(-c2cc3cc(OCCCN4CCCC4=O)ccc3[nH]2)c1)c1cnn(Cc2ccccc2)c1` [Example 148, 1-Benzyl-1H-pyrazole-4-carboxylic acid (6-oxo-5-{5-[3-(2-oxo-pyrrolidin-1-yl)-propoxy]-1H-indole-2-yl}-1,6-dihydro-pyridin-3-yl)-amide] was below 100 nM.
As to `O=C(Nc1cnn(Cc2ccncc2)c1)c1c[nH]c(=O)c(-c2cc3ccccc3[nH]2)c1` [Example 36, 5-(1H-Indol-2-yl)-6-oxo-1,6-dihydro-pyridine-3-carboxylic acid (1-pyridin-4-ylmethyl-1H-pyrazol-4-yl)-amide], the IC50 lay within 100 to 500 nM.
On to `CC(C)(COc1ccc2[nH]c(-c3cc(NC(=O)c4cnn(Cc5ccccc5)c4)c[nH]c3=O)cc2c1)CN1CC[C@@H](F)C1` [Example 182, 1-Benzyl-1H-pyrazole-4-carboxylic acid (5-{5-[3-((R)-3-fluoro-pyrrolidin-1-yl)-2,2-dimethyl-propoxy]-1H-indol-2-yl}-6-oxo-1,6-dihydro-pyridin-3-yl)-amide], for which the IC50 is below 100 nM.
On to `O=C(Nc1c[nH]c(=O)c(-c2cc3cc(OCCCN4CCCCC4)ccc3[nH]2)c1)c1cnn(Cc2ccccc2)c1` [Example 143, 1-Benzyl-1H-pyrazole-4-carboxylic acid {6-oxo-5-[5-(3-piperidin-1-yl-propoxy)-1H-indol-2-yl]-1,6-dihydro-pyridin-3-yl}-amide], for which the IC50 was below 100 nM.
Take `O=C(Nc1cnn(CC2CCCCC2)c1)c1c[nH]c(=O)c(-c2cc3ccccc3[nH]2)c1` [Example 34, 5-(1H-Indol-2-yl)-6-oxo-1,6-dihydro-pyridine-3-carboxylic acid (1-cyclohexylmethyl-1H-pyrazol-4-yl)-amide]: the IC50 was 500 to 1500 nM.

Source of the values: patent US9604975B2, “Indolyl-pyridone derivatives having checkpoint kinase 1 inhibitory activity” (Vernalis (R&D) Ltd., priority 2009, dated 2017).
